Experimental data as given in patent US12503452B2 (Curza Global, LLC, priority 2019, dated 2025).

Experiments:
P. aeruginosa (Pa) = assay: Broth microdilution minimum inhibitory concentration (MIC); assay type: cell-based; conditions: P. aeruginosa, growth medium with sodium bicarbonate; for MIC: Pseudomonas aeruginosa, read-out: Pa MIC + bicarb
Procedure, shortened: (§1)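 MICs were run in triplicate per CLSI microdilution (modified, 8 dilution steps), inoculating 5×10^4 CFU/well prepared from colonies grown at 35±2° C to 0.5 McFarland. Media: CAMHB alone, with 6.25 or 25 mM final sodium bicarbonate, or with 0–50% heat-inactivated human serum.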

E. faecalis (Ef) = assay: as above; assay type: cell-based; conditions: E. faecalis, growth medium with sodium bicarbonate; for MIC: Enterococcus faecalis, read-out: Ef + bicarb MIC
Procedure, shortened: as §1

A. baumannii (Ab) = assay: as above; assay type: cell-based; conditions: A. baumannii, growth medium with sodium bicarbonate; for MIC: Acinetobacter baumannii, read-out: Ab + bicarb MIC
Procedure, shortened: as §1

S. aureus (Sa) = assay: as above; assay type: cell-based; conditions: S. aureus, growth medium with sodium bicarbonate; for MIC: Staphylococcus aureus, read-out: Sa + bicarb MIC
Procedure, shortened: as §1

E. coli (Ec) = assay: as above; assay type: cell-based; conditions: E. coli, growth medium with sodium bicarbonate; for MIC: Escherichia coli, read-out: E. coli + bicarb MIC
Procedure, shortened: as §1

[1] = system: E. coli S30 extract (bacterial protein synthesis); assay: E. coli S30 extract coupled transcription-translation luciferase assay (inhibition of bacterial protein synthesis); assay type: biochemical; conditions: class by IC50 or % inhibition @ 1 μM, read-out: S30 IC50 (μM/% inhib.)
Procedure, shortened: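 Luminescent read-out of luciferase made from pBESTluc DNA by E. coli S30 extract after 1 h at 37 °C with compound in an 8-point 2-fold series. Background came from no-DNA reactions. Percent inhibition was calculated against water-only controls.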

[2] = target: Rabbit Reticulocyte Lysate (eukaryotic protein synthesis); assay: Rabbit reticulocyte lysate luciferase assay (inhibition of eukaryotic protein synthesis); assay type: biochemical; conditions: class by IC50 or % inhibition @ 1 μM, read-out: Rabbit reticulocyte IC50 (μM/% inhib.)
Procedure, shortened: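 Compounds were tested in 8-point 2-fold dilution series for blocking luciferase synthesis in nuclease-treated rabbit reticulocyte lysate (30° C., 90 minutes). Luminescence read-out, corrected by no-RNA background, was expressed as % inhibition against water-only reactions.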

SMILES | Pa MIC + bicarb (P. aeruginosa (Pa)) | Ef + bicarb MIC (E. faecalis (Ef)) | MIC (A. baumannii (Ab)) | MIC (S. aureus (Sa)) | MIC (E. coli (Ec)) | IC50 [1] | IC50 [2] | MIC (P. aeruginosa (Pa)) | MIC (E. faecalis (Ef)) | Ab + bicarb MIC (A. baumannii (Ab)) | Sa + bicarb MIC (S. aureus (Sa)) | E. coli + bicarb MIC (E. coli (Ec))
CC(Cc1ccc(-n2ccc(NC(=O)N3CCN(C(=O)C(C)(C)N)CC3)nc2=O)cc1)N1CC[C@H](CN)C1 (stereo partly drawn) [Compound 170] | ++ (An MIC value (μg/mL) that is 8 μg/mL or greater and less than 32 μg/mL) | + (An MIC value (μg/mL) that is 32 μg/mL or greater) | > 32 µg/mL | 8 to 32 µg/mL | < 8 µg/mL | < 0.5 µM | > 1 µM | – | – | – | – | –
CC(Cc1ccc(-n2ccc(NC(=O)N3CCN(C(=O)C(C)(C)N)CC3)nc2=O)cc1)N[C@H]1CC[C@H](N)CC1 (stereo partly drawn) [Compound 171] | – | – | > 32 µg/mL | 8 to 32 µg/mL | < 8 µg/mL | > 1 µM | > 1 µM | > 32 µg/mL | > 32 µg/mL | – | – | –
CC(Cc1ccc(-n2ccc(NC(=O)N3CCN(C(=O)C(C)(C)N)CC3)nc2=O)cc1)N[C@@H]1CC[C@H](N)C1 (stereo partly drawn) [Compound 172] | – | – | > 32 µg/mL | < 8 µg/mL | < 8 µg/mL | < 0.5 µM | > 1 µM | > 32 µg/mL | < 8 µg/mL | – | – | –
CC(Cc1ccc(-n2ccc(NC(=O)N3CCN(C(=O)C(C)(C)N)CC3)nc2=O)cc1)N[C@@H]1CC[C@@H](N)C1 (stereo partly drawn) [Compound 173] | – | – | > 32 µg/mL | < 8 µg/mL | < 8 µg/mL | < 0.5 µM | > 1 µM | > 32 µg/mL | 8 to 32 µg/mL | – | – | –
CC(Cc1ccc(-n2ccc(NC(=O)N3CCN(C(=O)C(C)(C)N)CC3)nc2=O)cc1)N[C@H]1CC[C@@H](N)CC1 (stereo partly drawn) [Compound 174] | – | – | 8 to 32 µg/mL | < 8 µg/mL | < 8 µg/mL | < 0.5 µM | > 1 µM | > 32 µg/mL | < 8 µg/mL | – | – | –
CC(Cc1ccc(-n2ccc(NC(=O)N3CCN(C(=O)C(C)(C)N)CC3)nc2=O)cc1)N(C)[C@H]1CC[C@@H](N)CC1 (stereo partly drawn) [Compound 175] | ++ (An MIC value (μg/mL) that is 8 μg/mL or greater and less than 32 μg/mL) | – | > 32 µg/mL | < 8 µg/mL | < 8 µg/mL | < 0.5 µM | > 1 µM | – | < 8 µg/mL | – | – | –
CC(Cc1ccc(-n2ccc(NC(=O)N3CCN(C(=O)C(C)(C)N)CC3)nc2=O)cc1)N(C)[C@H]1CC[C@@H](N)CC1 (stereo partly drawn) [Compound 176] | + (An MIC value (μg/mL) that is 32 μg/mL or greater) | +++ (An MIC value (μg/mL) that is less than 8 μg/mL) | – | – | – | < 0.5 µM | > 1 µM | – | – | + (An MIC value (μg/mL) that is 32 μg/mL or greater) | +++ (An MIC value (μg/mL) that is less than 8 μg/mL) | +++ (An MIC value (μg/mL) that is less than 8 μg/mL)
CC(C)(N)C(=O)N1CCN(C(=O)Nc2ccn(-c3ccc(CCN[C@H]4CC[C@@H](N)CC4)cc3)c(=O)n2)CC1 [Compound 179] | – | – | > 32 µg/mL | < 8 µg/mL | < 8 µg/mL | < 0.5 µM | > 1 µM | > 32 µg/mL | 8 to 32 µg/mL | – | – | –
CC(C)(N)C(=O)N1CCN(C(=O)Nc2ccn(-c3ccc(CCN[C@H]4CC[C@H](N)CC4)cc3)c(=O)n2)CC1 [Compound 180] | – | – | > 32 µg/mL | 8 to 32 µg/mL | < 8 µg/mL | 0.5 to 1 µM | > 1 µM | > 32 µg/mL | > 32 µg/mL | – | – | –
CC(C)(N)C(=O)N1CCN(C(=O)Nc2ccn(-c3ccc(CCN[C@@H]4CC[C@H](N)C4)cc3)c(=O)n2)CC1 [Compound 181] | – | – | > 32 µg/mL | < 8 µg/mL | < 8 µg/mL | < 0.5 µM | > 1 µM | > 32 µg/mL | 8 to 32 µg/mL | – | – | –
CC(CN1CC(N)C1)Oc1ccc(-n2ccc(NC(=O)N3CCN(C(=O)C(C)(C)N)CC3)nc2=O)cc1 (stereo not drawn) [Compound 182] | – | – | > 32 µg/mL | > 32 µg/mL | 8 to 32 µg/mL | > 1 µM | > 1 µM | > 32 µg/mL | > 32 µg/mL | – | – | –
CC(CNC1CNC1)Oc1ccc(-n2ccc(NC(=O)N3CCN(C(=O)C(C)(C)N)CC3)nc2=O)cc1 (stereo not drawn) [Compound 183] | – | – | > 32 µg/mL | > 32 µg/mL | > 32 µg/mL | > 1 µM | > 1 µM | > 32 µg/mL | > 32 µg/mL | – | – | –
